In patent US11396531B2, “Antimicrobial peptides comprising epsilon lysine residues” (priority 2016, dated 2022):
In brackets after ≈: the same amount, converted by molar mass. No end group written: not given here.

Experiments:
[1] = system: K. pneumoniae; assay: microbe, parasite or virus in culture; format: cell-based, Klebsiella pneumoniae; details: K. pneumonia (n = 4)
Protocol: (§1) MIC of cationic polymers and polypeptide were tested in accordance with the Clinical and Laboratory Standards Institute (CLSI) guidelines against a panel of antibiotic-susceptible/-resistant bacteria, yeasts and fungal strains. Bacterial and yeast strains were cultured on tryptic soy agar (TSA) and Sabaroud dextrose agar (SDA) plates (Neogen Corporation, MI, USA) overnight respectively. Inocula in Mueller-Hinton broth (MHB) for bacteria and SD broth for C. albicans (Beckton Dickinson, MD, USA) were prepared at 0.5 McFarland. The suspensions were then diluted to a final concentration of 10^5 CFU/ml in a 96-well microtitre plate (SPL Life Sciences Co., Ltd, Korea). Polymers and polypeptides were added to the inoculum in 2-fold serial dilutions to give a range of concentrations from 2-1024 μg/ml. […] The antimicrobial activities were compared with topical antiseptic agents, BAK and CHX. A similar protocol was used to determine the MIC of εPL against antibiotic-resistant pathogens. MIC of the polymers and polypeptides against Fusarium strains was determined in full strength RPMI-1640 buffer. Fungal spores were recovered from a 5-day old culture on a potato dextrose agar and diluted to a concentration of 10^5 spores/ml in 0.9% saline solution. A further 50-fold dilution was done in RPMI-1640 buffer and 100 μl of the inoculum was added to 96 well plates containing an equal volume of test peptides at 2-fold serial dilutions. 200 μl of inoculum without any additives and buffer alone served as positive and negative controls, respectively. The plate was then incubated at 30° C. for 48 h. The absorbance value was measured at 600 nm as before and the lowest concentration of the peptide which inhibited 90% growth was reported. All MIC determinations were performed in duplicates.
(§2) MICs of polymers/antibiotics were determined using the microdilution method in 96 well microtitre plates (SPL Life Sciences Co., Ltd, Korea), following the guidelines of Clinical and Laboratory Standards Institute (CLSI) document M100-S18. Briefly, polymers (1-512 μg/ml) or antibiotics were dissolved in appropriate media (Mueller Hinton broth, MHB for bacteria; Sabaroud's Dextrose (SD) broth for yeasts and RPMI buffer for Fusarium strains) and 100 μl of this was then mixed with an equal volume of microbial inoculum (OD600=˜0.08) in the same media and shaken in a closed incubator.

[2] = system: C. albicans; details: C. albicans (n = 5)
Protocol: as §1, with “Korea).” for “Korea). Polymers and polypeptides were added to the inoculum in 2-fold serial dilutions to give a range of concentrations from 2-1024 μg/ml.”
as §2

[3] = system: Vancomycin-resistant Enterococcus (VRE); details: VRE (n = 3)
Protocol: as §1, with “Korea).” for “Korea). Polymers and polypeptides were added to the inoculum in 2-fold serial dilutions to give a range of concentrations from 2-1024 μg/ml.”
as §2

[4] = system: S. aureus; assay: microbe, parasite or virus in culture; format: cell-based, Staphylococcus aureus; details: S. aureus (n = 6)
Protocol: as §1, §2

[5] = system: P. aeruginosa; format: cell-based, Pseudomonas aeruginosa; details: P. aeruginosa (n = 22)
Protocol: as §1
(§3) MICs of polymers/antibiotics were determined using the microdilution method in 96 well microtitre plates (SPL Life Sciences Co., Ltd, Korea), following the guidelines of Clinical and Laboratory Standards Institute (CLSI) document M100-S18. […]

[6] = system: T-cell lymphomas (HuT78, MJ, HH) and B-cell lymphomas (Ly-4 and Ly-18); assay: Anticancer properties of hypercharged peptides (MTS); format: cell-based, human; details: 62.5-500 μg/ml
Protocol: The hyper-charged peptides were screened for their anticancer properties using cell lines derived from patients with various forms of cutaneous lymphomas, including T-cell lymphomas (HuT78, MJ, HH) and B-cell lymphomas (Ly-4 and Ly-18). The relative cytotoxicity of these peptides was also assessed in healthy primary peripheral blood lymphocyte (PBL) T-cells. Cytotoxicity was measured as the mitochondrial function by metabolic reduction of MTS.

[7] = system: E. coli; assay: microbe, parasite or virus in culture; format: cell-based, Escherichia coli; details: E. coli (n = 3)
Protocol: as §1, §2

[8] = system: MRSA; format: cell-based, Staphylococcus aureus; details: MRSA (n = 9)
Protocol: as §1, §2

[9] = system: A. baumannii; assay: microbe, parasite or virus in culture; details: A. baumanii (n = 3)
Protocol: as §1, with “Korea).” for “Korea). Polymers and polypeptides were added to the inoculum in 2-fold serial dilutions to give a range of concentrations from 2-1024 μg/ml.”
as §2

[10] = system: Carbapenam-resistant Enterobacter strains (CRE); assay: microbe, parasite or virus in culture; details: CRE strains (n = 4)
Protocol: as §1, with “Korea).” for “Korea). Polymers and polypeptides were added to the inoculum in 2-fold serial dilutions to give a range of concentrations from 2-1024 μg/ml.”
as §2

[11] = system: E. cloacae complex; assay: microbe, parasite or virus in culture; details: E. clocae complex (n = 4)
Protocol: as §1, with “Korea).” for “Korea). Polymers and polypeptides were added to the inoculum in 2-fold serial dilutions to give a range of concentrations from 2-1024 μg/ml.”
as §2

[12] = system: F. solani and F. oxysporum; assay: Minimum inhibitory concentration (MIC) determination, Fusarium strains; format: cell-based; details: F. solani and F. oxysporum (n = 6)
Protocol: MIC of cationic polymers and polypeptide were tested in accordance with the Clinical and Laboratory Standards Institute (CLSI) guidelines against a panel of antibiotic-susceptible/-resistant bacteria, yeasts and fungal strains. Bacterial and yeast strains were cultured on tryptic soy agar (TSA) and Sabaroud dextrose agar (SDA) plates (Neogen Corporation, MI, USA) overnight respectively. Inocula in Mueller-Hinton broth (MHB) for bacteria and SD broth for C. albicans (Beckton Dickinson, MD, USA) were prepared at 0.5 McFarland. The suspensions were then diluted to a final concentration of 10^5 CFU/ml in a 96-well microtitre plate (SPL Life Sciences Co., Ltd, Korea). Polymers and polypeptides were added to the inoculum in 2-fold serial dilutions to give a range of concentrations from 2-1024 μg/ml. […] The antimicrobial activities were compared with topical antiseptic agents, BAK and CHX. […] MIC of the polymers and polypeptides against Fusarium strains was determined in full strength RPMI-1640 buffer. […] The absorbance value was measured at 600 nm as before and the lowest concentration of the peptide which inhibited 90% growth was reported. […]
as §3

[13] = system: P. aeruginosa ATCC 9027; assay: Antimicrobial activity of the peptides in trypsin; format: cell-based, Pseudomonas aeruginosa; details: trypsin:peptide 1:100, 37° C.
Protocol: To determine the antimicrobial activity of the peptides in the presence of proteases, 1 mg/ml of HC1 and HC2 were incubated with trypsin enzyme:peptide weight ratio 1:100) for 1 h at 37° C. After this, a 20 μl aliquot of this solution was mixed 180 μl of bacterial inoculum (P. aeruginosa ATCC 9027, 10^5 CFU/ml in MHB) and incubated at room temperature for 6 h. 100 μL aliquots of the suspension was diluted serially (10-fold) in 10 mM PBS solution and pour plated on MH agar plates and incubated at 37° C. for 48 h and colony forming units per ml (CFU/ml) are enumerated.

| Molecule | MIC [1] [µg/mL] | MIC [2] [µg/mL] | MIC [3] [µg/mL] | MIC [4] [µg/mL] | MIC [5] [µg/mL] | cell killing in lymphoma cell lines [6] | MIC [7] [µg/mL] | MIC [8] [µg/mL] | MIC [9] [µg/mL] | MIC [10] [µg/mL] | MIC [11] [µg/mL] | MIC [12] [µg/mL] | decrease in the bacterial viability after incubation with trypsin for 1 hour [13] |
| --- | --- | --- | --- | --- | --- | --- | --- | --- | --- | --- | --- | --- | --- |
| N=C(N)NCCC[C@H](NC(=O)[C@H](N)CCCCNC(=O)[C@H](CCCNC(=N)N)NC(=O)[C@H](N)CCCCNC(=O)[C@H](CCCNC(=N)N)NC(=O)[C@H](N)CCCCNC(=O)[C@H](CCCNC(=N)N)NC(=O)[C@H](N)CCCCNC(=O)[C@H](CCCNC(=N)N)NC(=O)[C@H](N)CCCCNC(=O)[C@H](CCCNC(=N)N)NC(=O)[C@H](N)CCCCN)C(=O)O [HC6, kRkRkRkRkRkR] | 32 to 128 | 16 to 32 | 16 (≈ 9.28 µM) | 32 to 64 | 32 to 64 | varying degrees of cell killing | 16 (≈ 9.28 µM) | 16 to 32 | 16 to 64 | 64 to 128 | 64 to 128 | – | – |
| C[C@@H]1C/C=C/C=C/C=C/C=C/[C@H](O[C@@H]2O[C@H](C)[C@@H](O)[C@H](N)[C@@H]2O)C[C@@H]2O[C@](O)(C[C@@H](O)C[C@H]3O[C@@H]3/C=C/C(=O)O1)C[C@H](O)[C@H]2C(=O)O [Natamycin] | – | – | – | – | – | – | – | – | – | – | – | 8000 to 16000 (≈ 12000 to 24000 µM) | – |
| KRKRKRKRKRKR [HC1, KRKRKRKRKRKR] | 64 | 64 to 128 | 16 to 32 | 32 to 64 | 32 to 128 | varying degrees of cell killing | 16 | 16 to 64 | 64 to 128 | 64 to 128 | 64 to 128 | – | complete loss of activity |
